Measurements reported in ChEMBL document CHEMBL3734749, “Naturally occurring FANCFHes1 complex inhibitors from Wrightia religiosa” (Medchemcomm, 2015).
The source made the active and inactive calls. No cut-off for these calls is given here.

What was measured:
[1] = target: T1, Fanconi anemia group F protein/Transcription factor HES-1 (Homo sapiens, UniProt Q14469+Q9NPI8); experiment: (§1) Inhibition of Cy3-GST-tagged human recombinant full length FANCF/Cy3-tagged human full length HES1 (1 to 280 amino acid residues) interaction expressed in Escherichia coli JM109 after 1 hrs by microplate reader assay
T1 sequence (Q9NPI8 whole entry): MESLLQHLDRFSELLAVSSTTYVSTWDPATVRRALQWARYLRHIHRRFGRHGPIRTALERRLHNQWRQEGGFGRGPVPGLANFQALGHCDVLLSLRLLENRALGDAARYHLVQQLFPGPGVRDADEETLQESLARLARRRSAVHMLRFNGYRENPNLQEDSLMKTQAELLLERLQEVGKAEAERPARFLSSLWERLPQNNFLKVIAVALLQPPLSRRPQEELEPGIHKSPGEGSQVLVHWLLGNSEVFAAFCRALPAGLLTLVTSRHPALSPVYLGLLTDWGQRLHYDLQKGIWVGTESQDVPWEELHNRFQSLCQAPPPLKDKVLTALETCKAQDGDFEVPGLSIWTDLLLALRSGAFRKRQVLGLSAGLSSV
T1 sequence (Q14469 whole entry): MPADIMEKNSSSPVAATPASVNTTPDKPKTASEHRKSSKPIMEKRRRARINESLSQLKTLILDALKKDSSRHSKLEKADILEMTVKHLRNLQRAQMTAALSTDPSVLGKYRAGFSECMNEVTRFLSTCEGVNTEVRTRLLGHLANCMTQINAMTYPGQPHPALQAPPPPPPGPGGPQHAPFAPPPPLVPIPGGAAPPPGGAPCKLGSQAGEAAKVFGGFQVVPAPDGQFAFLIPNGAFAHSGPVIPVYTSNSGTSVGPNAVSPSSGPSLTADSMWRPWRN

[2] = target: T2, Fanconi anemia group F protein/Transcription factor HES-1 (Homo sapiens) (UniProt Q9NPI8+Q14469); experiment: as §1
[3] = target: T2, Fanconi anemia group F protein/Transcription factor HES-1 (Homo sapiens); experiment: Inhibition of Cy3-GST-tagged human recombinant full length FANCF/Cy3-tagged human full length HES1 (1 to 280 amino acid residues) interaction expressed in Escherichia coli JM109 at 10 uM after 1 hrs by microplate reader assay
[4] = target: T3, Transcription factor HES-1 (Homo sapiens, UniProt Q14469); experiment: Inhibition of Cy3-tagged human recombinant full length HES1 (1 to 280 amino acid residues)/Cy3-GST-tagged human recombinant full length HES1 (1 to 280 amino acid residues) dimer formation expressed in Escherichia coli JM109 after 1 hr by microplate reader assay
T3 sequence (Q14469 whole entry): T1 sequence (Q14469 whole entry)

[5] = Inhibition of Cy3-GST-tagged human recombinant full length FANCF/Cy3-tagged rat Hes1 (3 to 281 amino acid residues) interaction expressed in Escherichia coli JM109 at 50 uM after 1 hrs by microplate reader assay
[6] = Inhibition of GST-tagged recombinant mouse beta-catenin (128 to 683 amino acid residues)/human recombinant TCF4E (1 to 100 amino acid residues) complex formation expressed in Escherichia coli JM109 after 1 hrs by microplate reader assay
[7] = Reduction of colony formation in wild type mouse bone marrow cells at 50 uM after 10 to 14 days; format: functional, Bone marrow cell; design: scale not given: the % may be the effect or the level left
Bone marrow cell [8] = experiment: Reduction of colony formation in Fanconi C deficient mouse bone marrow cells at 50 uM after 10 to 14 days; format: functional, cell-based
Bone marrow cell [9] = experiment: Reduction of colony formation in Fanconi A deficient mouse bone marrow cells at 50 uM after 10 to 14 days; format: functional, cell-based

IC50 [1] [µM]	inhibition [2]	inhibition [3] [%]	IC50 [4] [µM]	inhibition [5]	IC50 [6] [µM]	SMILES	Activity [7] [%]	Activity (Bone marrow cell [8])	Activity (Bone marrow cell [9])
35.8	Dose-dependent effect	40	> 100	Active	> 100	C[C@@H]1O[C@@H](OC[C@H]2O[C@@H](Oc3c(-c4ccc(O)c(O)c4)oc4cc(O)cc(O)c4c3=O)[C@H](O)[C@@H](O)[C@H]2O)[C@H](O)[C@H](O)[C@H]1O	–	–	–
–	Dose-dependent effect	–	–	Active	–	C[C@@H]1O[C@@H](OC[C@H]2O[C@@H](Oc3c(-c4ccc(O[C@@H]5O[C@@H](C)[C@H](O)[C@@H](O)[C@H]5O)cc4)oc4cc(O)cc(O)c4c3=O)[C@H](O)[C@@H](O)[C@@H]2O)[C@H](O)[C@H](O)[C@H]1O	–	–	–
23.6	Dose-dependent effect	40	25.7	Active	> 100	C[C@@H]1O[C@@H](OC[C@H]2O[C@@H](Oc3c(-c4ccc(O[C@@H]5O[C@@H](C)[C@H](O)[C@@H](O)[C@H]5O)c(O)c4)oc4cc(O)cc(O)c4c3=O)[C@H](O)[C@@H](O)[C@@H]2O)[C@H](O)[C@H](O)[C@H]1O	40	inactive	Active
